For 4 compounds, cAMP elevation, EC50 and ED50 results are on record in patent US5914339A, “Substituted 1,3-benzodioxoles” (American Home Products Corporation, priority 1997, dated 1999).

The subject of experiment [1] is human β-adrenergic receptors. Put plainly: cAMP elevation in all 3 transfected CHO cell types. Format: cell-based. As to conditions: 10 μM, all 3 cell types. As for the experimental part: (§1) The activity of the test compounds on human β-adrenergic receptors was determined with Chinese hamster ovary (CHO) cells transfected with human β2, or β1 adrenergic receptors. Agonist activity is indicated by increased cAMP levels in the CHO cells. Selectivity of the test compounds for the β3 receptor was assessed by comparison with results in β2 and β1 adrenergic receptor transfected cells.
4). […]

For experiment [2], the target named is human β1 adrenergic receptor (Homo sapiens, UniProt P08588). The experiment in a line: Human β1 adrenergic receptor agonist activity, cAMP increase in transfected CHO cells. Conditions: cAMP in CHO cells; selected compounds; read-out: β1: EC50. It is filed as cell-based. Here is the method:
as §1
1). Chinese hamster ovary (CHO) cells transfected with human β2, or β1 adrenergic receptors were used in the assay.
2). Cells were grown to confluent conditions in 24 well plates.
3). Drugs were dissolved in DMSO at a concentration of 10 μM.
4). Cells were incubated with drug at 10 nM concentration for 10 min at 37° C.
5). Cell cAMP concentrations were assayed using a scintillation proximity assay kit from Amersham Corp., Chicago, Ill.
6). Activities for the test compounds are expressed as a percentage of the isoproterenol response.
Production of the CHO cells transfected with human β2, or β1 adrenergic receptors, and compound test procedures utilizing the CHO cells, are described by Emorine et al. in their article "Molecular Characterization of the Human Beta3 -Adrenergic Receptor", Science 1989, 245(8), 1118-1121 and by Muzzin et al. in the article "An Adipose Tissue-Specific Beta3 -Adrenergic Receptor", J. Biol. Chem.1991, 266, 24053-24058.
^a Human β receptors expressed in Chinese hamster ovary cells,
compounds tested at 10 nM, results expressed as % of isoproterenol
activity (increase in cAMP) at 10 μM. EC50 (μM) values
determined for selected compounds.

For the next experiment, the system named is plasma free fatty acids. Put plainly: Effects on plasma free fatty acid levels in rats. Conditions: Rattus norvegicus, 50 min; elevation of plasma free fatty acids, oral gavage; selected compounds; read-out: Rat Free Fatty Acid: ED50. Format: in vivo, rat. Here is the method:
Rats respond to a single oral dose of β3 agonists by increasing plasma free fatty acids (FFA) in response to β3 receptor stimulation on the plasma membrane of the fat cell. 5-{2-[2-(3-Chloro-phenyl)-2-hydroxy-ethylamino]-propyl}-benzo[1,3]dioxole- 2,2-dicarboxylic acid diisopropyl ester (Standard 2) was used as a standard compound. All test compounds were dosed at 0.1 mg/kg and compared to the response by Standard 2.
1). Drugs were dissolved in DMSO at 10 mg/ml.
2). Twenty μl of the DMSO-drug solution was added to 10 mL methyl cellulose:tween-80 (0.5%:0.1%) for a final concentration of 20 μg/mL.
3). Methyl cellulose:tween-80 drug suspension was given via gavage (1 mL/200 g body weight; or 0.1 mg/kg) to rats and blood was collected 50 min later.
4). Plasma was analyzed for free fatty acids using a kit supplied by Biochemical Diagnostics Inc. (Brentwood, N.Y.).
5). Drug response was calculated from the formula below. [formula]
^b Elevation of plasma free fatty acids in rats, compounds tested at
0.1 mg/kg, results expressed as % of
5{2[2(3-Chloro-phenyl)-2-hydroxy-ethylaminopropylbenzo[1,3dioxole-2,2-dic
rboxylic acid diisopropyl ester response (78% increase) at 0.1 mg/kg.
ED50 (mg/kg) values determined for selected compounds.

In another experiment the test system is plasma glucose. The experiment in a line: Effects on hyperglycemia in db/db mice, plasma glucose. It is filed as in vivo, mouse (male, db/db (C57BL/KsJ)). Conditions: Mus musculus, po, 96 h; p.o., 4 days, mean of 2 and 4 h values on Day 4; footnote c gives mg/kg/day; read-out: db/db Mice Plasma Glucose: ED50 for lowering of plasma glucose.
Experiment [3] deals with human β2 adrenergic receptor (Homo sapiens, UniProt P07550). The experiment in a line: cell-based. Conditions: cAMP in CHO cells; selected compounds; read-out: β2: EC50. Put shortly:
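CHO cells transfected with human β1 or β2 adrenergic receptors were grown to confluence and exposed to compound at 10 nM for 10 min at 37° C. Cellular cAMP was measured by scintillation proximity assay. Activity is expressed as % of the response to 10 μM isoproterenol; EC50 (μM) was determined for selected compounds.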

Chain of human β2 adrenergic receptor (P07550 whole entry): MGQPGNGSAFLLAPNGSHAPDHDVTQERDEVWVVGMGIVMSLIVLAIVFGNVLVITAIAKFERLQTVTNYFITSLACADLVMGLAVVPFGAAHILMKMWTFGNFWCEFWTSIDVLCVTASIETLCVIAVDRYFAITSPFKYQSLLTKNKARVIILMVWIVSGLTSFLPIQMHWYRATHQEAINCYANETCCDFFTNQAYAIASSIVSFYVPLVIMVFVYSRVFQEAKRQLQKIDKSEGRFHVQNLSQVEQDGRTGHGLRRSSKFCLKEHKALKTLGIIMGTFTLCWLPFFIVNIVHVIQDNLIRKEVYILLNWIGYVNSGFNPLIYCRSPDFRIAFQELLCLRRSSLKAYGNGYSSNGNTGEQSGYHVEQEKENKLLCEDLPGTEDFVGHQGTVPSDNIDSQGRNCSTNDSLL
Chain of human β1 adrenergic receptor (P08588 whole entry): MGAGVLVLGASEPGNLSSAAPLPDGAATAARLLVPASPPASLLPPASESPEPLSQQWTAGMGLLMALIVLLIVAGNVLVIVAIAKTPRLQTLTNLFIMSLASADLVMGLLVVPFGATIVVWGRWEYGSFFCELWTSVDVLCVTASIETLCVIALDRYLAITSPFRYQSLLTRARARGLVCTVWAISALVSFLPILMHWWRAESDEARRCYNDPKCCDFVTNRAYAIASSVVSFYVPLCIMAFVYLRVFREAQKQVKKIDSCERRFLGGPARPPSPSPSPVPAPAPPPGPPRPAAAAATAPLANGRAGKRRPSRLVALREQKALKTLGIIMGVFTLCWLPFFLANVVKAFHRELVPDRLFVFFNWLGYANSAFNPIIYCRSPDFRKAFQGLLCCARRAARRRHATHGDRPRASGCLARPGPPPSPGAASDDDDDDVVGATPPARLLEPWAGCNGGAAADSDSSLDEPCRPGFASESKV

Take `CC(C)NCC(O)c1ccc(O)c(O)c1` (stereo not shown) [Isoproterenol]: in experiment [1], the cAMP elevation result was “maximal cAMP elevation”.

By EC50 is commonly meant the concentration at which the effect is half-maximal. Take `CC(C)CCOC(=O)C1(C(=O)OCCC(C)C)Oc2ccc(C[C@@H](C)NC[C@H](O)c3cccc(Cl)c3)cc2O1` [Example 75, 5-{(2R)-2-[(2R)-2-(3-Chloro-phenyl)-2-hydroxy-ethylamino]-propyl}-benzo[1,3]dioxole-2,2-dicarboxylic acid bis-(3-methylbutyl)ester]: the results for the EC50 in experiment [2] and in experiment [3] were 5.4 µM and 0.058 µM, respectively. Further, the ED50 in the experiment on plasma free fatty acids amounted to 0.026 mg/kg; with plasma glucose, 0.11 mg/kg.

For `C[C@H](Cc1ccc2c(c1)OC(C(=O)OCC(C)(C)C)(C(=O)OCC(C)(C)C)O2)NC[C@H](O)c1cccc(Cl)c1` [Example 78, 5-{(2R)-2-[(2R)-2-(3-Chloro-phenyl)-2-hydroxy-ethylamino]-propyl}-benzo[1,3]dioxole-2,2-dicarboxylic acid bis-(2,2-dimethyl-propyl) ester], the 50% effective concentration (EC50) was determined as 5 µM in experiment [2] and 0.325 µM in experiment [3]. In addition, the ED50 with plasma free fatty acids stood at 0.027 mg/kg; in the experiment with plasma glucose, 0.028 mg/kg.

Take `CC(Cc1ccc2c(c1)OC(C(=O)OCCC(C)(C)C)(C(=O)OCCC(C)(C)C)O2)NCC(O)c1cccc(Cl)c1` (stereo not shown) [Example 33, 5-{2-[2-(3-Chloro-phenyl)-2-hydroxy-ethylamino]-propyl}-benzo[1,3]dioxole-2,2-dicarboxylic acid bis-(3,3-dimethyl-butyl) ester]: the EC50 was 5.9 µM in experiment [2] and 0.1 µM in experiment [3]. In addition, the values for the ED50 with plasma free fatty acids and in the experiment with plasma glucose were 0.08 mg/kg and 0.201 mg/kg, respectively.
